Laboratory results: publication PMC5920098, “Identification of the allosteric P2X7 receptor antagonist [^11C]SMW139 as a PET tracer of microglial activation” (Scientific Reports, 2018)
Several values for one entry are separate records, joined by “and”; a condition that tells them apart may be missing. Identical values can stand only once.

How the values were obtained:
[1] = molecular target: T1, hP2X7R (Homo sapiens, UniProt Q99572); test: PET imaging in rats locally overexpressing hP2X7R in right striatum; type: in vivo, rat; details: PET
T1 construct: 3xFLAG (3flag); expressed in transfected cells; host or cells: rat striatum (female Wistar rats), transduced in vivo with the AAV vector rAAV_3flag-hP2X7R
T1 sequence (Q99572 1-595): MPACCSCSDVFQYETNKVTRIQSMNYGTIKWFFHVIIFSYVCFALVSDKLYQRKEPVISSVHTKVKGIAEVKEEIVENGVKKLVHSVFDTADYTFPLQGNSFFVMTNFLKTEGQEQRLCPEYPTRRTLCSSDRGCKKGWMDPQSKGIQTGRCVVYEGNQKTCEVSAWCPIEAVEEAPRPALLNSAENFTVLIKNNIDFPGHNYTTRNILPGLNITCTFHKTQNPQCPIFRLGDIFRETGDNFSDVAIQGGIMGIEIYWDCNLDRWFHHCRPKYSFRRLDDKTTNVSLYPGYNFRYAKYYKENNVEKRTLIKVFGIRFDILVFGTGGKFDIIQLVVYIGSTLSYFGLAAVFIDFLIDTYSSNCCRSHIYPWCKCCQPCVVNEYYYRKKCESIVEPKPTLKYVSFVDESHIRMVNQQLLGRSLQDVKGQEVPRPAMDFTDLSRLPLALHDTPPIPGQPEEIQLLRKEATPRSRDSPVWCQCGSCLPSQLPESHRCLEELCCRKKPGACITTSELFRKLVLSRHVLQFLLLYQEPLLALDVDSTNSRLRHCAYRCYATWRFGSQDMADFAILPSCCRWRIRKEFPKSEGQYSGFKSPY
Protocol: Uptake of [^11C]SMW139 was 1.5-fold higher in the right striatum compared with the contralateral striatum at 4–15 min p.i. (n = 3; Fig. 6A,B, and Supplementary Figure S5, 5 weeks after vector injection). […] (2.85 ± 0.69 vs. 2.30 ± 0.36 in contralateral striatum) throughout the remainder of the scanning time.
Female rats were injected with the hP2X7R expressing vector in the right striatum, and eGFP expressing vector in the left striatum, which is described in detail in the Supplementary Information. […] To confirm stable expression of hP2X7R during the time period in which PET scanning studies were conducted, autoradiography experiments were performed both prior to and following PET experiments. In a dedicated small animal PET scanner (nanoPET, Mediso Ltd.), 60 min dynamic PET scans were acquired immediately after intravenous administration of 16–20 MBq of [^11C]SMW139. […] 45 min prior to tracer injection. After data reconstruction (details in Supplementary Information), images were analysed using the freely available AMIDE software (version 0.9.2; http://amide.sourceforge.net). ROIs were drawn around ipsi- and contralateral striata. Results are expressed as standardised uptake values (SUVs) and error bars indicate standard deviation.
Stereotactic injection of viral vector […]
to a 10 µL Hamilton syringe. […]
dorsoventral -0.64 cm relative to bregma. […]
minutes before removing it slowly.
Rats were sacrificed for in
Dynamic PET imaging was performed using dedicated small animal NanoPET/CT and NanoPET/MR scanners (Mediso Ltd., Budapest, Hungary) which are equipped with identical PET components. […]
anaesthetised with 4% and 2% isoflurane in oxygen (1 L·min-1) for induction and maintenance, respectively. Rats were positioned on the scanner bed and their respiratory rate was monitored during the entire scan, and anaesthesia was adjusted whenever required. Dynamic PET scans were acquired immediately after intravenous (i.v.) administration of 16-20 MBq of [11C]SMW139 via the tail vein. For […]
hydroxypropyl)-β-cyclodextrin in water for injection 45 min prior to tracer injection. PET scans were acquired in list mode and rebinned into the following frame sequence: 4 × 5, 4 x 10, 2 x 30, 3x 60, 2 x 300, 1 x 600, 1 x 900 and 1 x 1200 s. Reconstruction was performed using a fully 3-dimensional reconstruction algorithm (Tera-TomoTM, Mediso Ltd.) with 4 iterations and 6 subsets, and an isotropic 0.4 mm voxel dimension. Images were analysed using the freely available AMIDE software (version 0.9.2; http://amide.sourceforge.net). 3D ellipsoid ROIs (dimensions x = 3.4 mm, y = 3.6 mm, z = 2.9 […]
mm) were drawn within ipsi- and contralateral striata. Results are expressed as standardised uptake values (SUVs) and error bars indicate standard deviation. SUV were calculated as follows, with cimg in MBq/mL, injected dose in MBq and bodyweight in kg:
An unpaired two-tailed t-test was used for statistical analysis of PET data, which was performed using […]
allowed to recover for 1 week after scanning. After 1 week of recovery following the final scan (12 weeks after stereotactic vector injection) animals were sacrificed, and brains were excised and stored […]
Extended single microdose toxicity study
A single microdose toxicity study according to EMEA guideline EMA/CPMP/ICH/286/1995 (December 2009) was performed in healthy Wistar rats at a 1000 times higher dose than the maximal dose […]
minimum specific activity of 18.5 GBq·µmol-1). Animals were allowed to acclimatise for 10 days, group-housed and in an enriched environment with food and water available ad libitum, and with a 12-hour light-dark cycle in a temperature controlled room.

[2] = molecular target: T2, human P2X7 receptor (hP2X7R) (Homo sapiens, UniProt Q99572); test: In vitro autoradiography on rat brain cryosections locally overexpressing hP2X7R; details: tracer 28 nM
T2 sequence (Q99572 1-595): T1 sequence (Q99572 1-595)
Protocol: Snap frozen brain tissue was cut on a cryostat into 20 μm sections.
Female Wistar rats (n=7) were anaesthetised by intraperitoneal (i.p.)
injection of ketamine (75 mg·kg-1); Ketalar, Pfizer, Brussels, Belgium) and medetomidin (1 mg·kg-1;
Domitor, Pfizer) and positioned in a stereotactic head frame (Stoelting, Wood Dale, IL, USA). Right and
left striatum were injected with 4 µL of the hP2X7R vector (rAAV_3flag-hP2X7R) and of the control
vector (rAAV_3flag-eGFP), respectively, at a rate of 0.25 µL·min-1, using a 30-gauge needle connected
to a 10 µL Hamilton syringe. Coordinates used for striatal injection of the hP2X7R vector were:
anteroposterior 0 cm, lateral -0.28 cm and dorsoventral -0.64 cm relative to bregma. Coordinates
used for striatal injection of the eGFP vector were: anteroposterior 0 cm, lateral +0.28 cm and
dorsoventral -0.64 cm relative to bregma. After injection, the needle was kept in place for another 5
minutes before removing it slowly. To reverse the anaesthesia, the rats were injected intraperitoneally
with 0.5 mg·kg-1 atipamezol (Antisedan, Orion Pharma, Newburry, Berkshire, UK).
vitro autoradiography at 3 (n=2) and 12 (n=5) weeks after vector injection.
Snap frozen brains of female Wistar rats (rAAV_3flag-hP2X7R in right striatum; rAAV_3flag-eGFP in left
striatum; sacrificed 3 weeks (n = 2) or 12 weeks (n = 5) after vector injection) were cut on a Leica
CM3050 S cryostat (Leica Biosystems, Nussloch, Germany) at -19 °C in transversal sections of 20 µm,
thaw-mounted on SuperFrostTM Plus (Thermo Fisher Scientific, Waltham, MA, USA) object glasses,
dried overnight on silica at 4 °C and then stored at -20 °C until use.
Upon use, sections were thawed to room temperature for an hour
before washing the sections in 5 mM Tris-HCl buffer (pH 7.4) at room temperature (3x 5 min). Sections
were dried in a cold stream of air before incubation (30 min) with 5 mM Tris-HCl buffer (pH 7.4)
concentration. After incubation, sections were washed (3x 1.5 min) in ice-cold 5 mM Tris-HCl buffer
(pH 7.4) followed by a dip in ice-cold demineralised water. Sections were dried in a stream of air and
then exposed to a storage phosphor screen (BAS-IP SR 2040 E, GE Healthcare Europe GmbH,
Eindhoven, the Netherlands) and the screen was read out on a Typhoon FLA 7000 phosphor imager
(GE Healthcare Europe GmbH, Eindhoven, the Netherlands).
quantified using ImageQuantTL Analysis Toolbox (version 8.1, GE Healthcare). In case of the rat brain
sections, regions of interest (ROIs) were defined around the striatum. […] Results are expressed as mean intensity, or as
percentage of tracer binding, relative to total tracer binding in the contralateral striatum. Experiments
with rAAV_3flag-hP2X7R injected rat brains were performed as a duplicate of quadruplicates.
Statistical analysis of quantitative autoradiography data (unpaired t test, two-tailed) was performed

[11CH3]Oc1ccc(Cl)c(C(=O)NCC23CC4(F)CC(F)(CC(F)(C4)C2)C3)c1 [[^11C]SMW139]
Time of peak of ipsi- to contralateral striatum ratio after tracer injection [1]: ≤ 15 min
Uptake in right (hP2X7R) striatum compared with contralateral striatum ([1]; 4–15 min p.i., n = 3, 5 weeks after vector injection): 1.5 fold
Uptake in rAAV_3flag-hP2X7R striatum after pre-treatment with JNJ-47965567 ([1]; 2 min p.i., JNJ-47965567 30 mg·kg^−1 s.c. 45 min prior to tracer, n = 3, 11 weeks after vector injection): 2.40 ± 0.22 SUV
Uptake in contralateral striatum ([1]; 2 min p.i., baseline): 2.30 ± 0.36 SUV
Uptake in rAAV_3flag-hP2X7R striatum ([1]; 2 min p.i., baseline): 2.85 ± 0.69 SUV
Mean intensity of tracer binding in rAAV_3flag-eGFP injected striatum [2]: 69 ± 10 counts
Mean intensity of tracer binding in rAAV_3flag-hP2X7R injected striatum [2]: 678 ± 55 counts
Increased binding in rAAV_3flag-hP2X7R injected striatum vs rAAV_3flag-eGFP injected striatum ([2]; n = 2): 10 ± 2 fold and 10 fold
